Measurements published in article PMC5531749 (Psychopharmacology, 2016).
Like-named read-outs stand apart in the source and are kept apart here.

Key:
[1] = tested on: visceral insular cortex (VIC) of rats; settings: intra-VIC, cited from earlier work
rat MAGL = settings: ref Limebeer et al. 2014; cited from earlier work
[2] = tested on: AEA and 2-AG in rat whole brain tissue; settings: ref Limebeer et al. 2014; cited from earlier work
[3] = tested on: 2AG and AEA levels in nucleus accumbens; settings: localized brain area; ref Wiskerke et al. (2012); cited from earlier work
male Sprague-Dawley rats [4] = settings: cited from earlier work
[5] = tested on: 2-AG and AEA in VIC tissue; settings: systemic and intra-VIC administration; ref Sticht et al. (2015); cited from earlier work
male Sprague-Dawley rats [6] = settings: cited from earlier work; remark: listed apart in the source
male Sprague-Dawley rats [7] = assay: Anticipatory nausea: contextually elicited conditioned gaping; assay type: in vivo, rat
male Sprague-Dawley rats [8] = assay type: in vivo, rat; settings: SR141716 2.5 mg/kg 90 min after AM4301 20 mg/kg
[9] = 10–20 mg/kg systemic, CB1 receptor-dependent, ref Parker et al. 2014

For `CCCCCCC(C)(C)c1cc(O)c2c(c1)OC(C)(C)[C@@H]1CC=C(CO)C[C@@H]21` [HU-210], the “acute nausea after administration into the VIC” value ([1]; ref Limebeer et al. 2012) is given as “suppressed”.
In the case of `O=C(Oc1ccc([N+](=O)[O-])cc1)N1CCN(Cc2cccc(Oc3ccccc3)c2)CC1` [JZL195], the “blocking the activities of rat MAGL in whole brain analysis” value (rat MAGL) is listed as “ineffective”, the “AEA in rat whole brain tissue” value [2] is listed as “elevated” and the “elevation of 2AG level in nucleus accumbens” value [3] is listed as “about 50%”. For the same molecule, the “elevation of AEA level in nucleus accumbens” value [3] was about 100% and the “anticipatory nausea, dual FAAH/MAGL inhibitor” value (male Sprague-Dawley rats [4]; 10 mg/kg, ref Limebeer et al. 2014) was “suppresses”.
In the case of `O=C(ON1C(=O)CCC1=O)N1CCN(C(c2ccc(Cl)cc2)c2ccc(Cl)cc2)CC1` [MJN110], the “acute nausea after administration into the VIC” value ([1]; ref Sticht et al. 2012b) is listed as “suppressed”, the “2-AG in the VIC” value [5] is listed as “elevates” and the “acute nausea, systemic MAGL inhibitor” value (male Sprague-Dawley rats [6]; [9]) is listed as “suppresses”. The “anticipatory nausea, systemic MAGL inhibitor” value (male Sprague-Dawley rats [4]; [9]) was “suppresses”.
With `Cc1c(C(=O)NN2CCCCC2)nn(-c2ccc(Cl)cc2Cl)c1-c1ccc(Cl)cc1` [SR141716] the “reversal of AM4302 suppression of anticipatory nausea by CB1 antagonist” value (male Sprague-Dawley rats [7]; SR 2.5 mg/kg 90 min after AM4302 20 mg/kg) was “reversed”, the “effect of CB1 antagonist on its own on contextually elicited gaping” value (male Sprague-Dawley rats [7]; VEH-SR 2.5 mg/kg) was “did not have an effect on its own” and the “reversal of AM4301 suppression of acute nausea by CB1 antagonist” value (male Sprague-Dawley rats [8]) was “reversed the suppressive effect of AM4301”.
For `NC(=O)c1cccc(-c2cccc(OC(=O)NC3CCCCC3)c2)c1` [URB597, cyclohexyl carbamic acid 3′-carbamoyl-biphenyl-3-yl ester], the “acute nausea, systemic FAAH inhibitor” value (male Sprague-Dawley rats [6]; 0.3 mg/kg systemic, ref Cross-Mellor et al. 2007) is given as “suppresses” and the “anticipatory nausea, systemic FAAH inhibitor” value (male Sprague-Dawley rats [4]; 0.3 mg/kg systemic, ref Rock et al. 2008) is given as “suppresses”.
